In US9359389B2, “Caged ceramide-1-phosphate derivatives” (RESEARCH FOUNDATION OF THE CITY UNIVERSITY OF NEW YORK, priority 2009, dated 2016):
Entries after “also recorded” stand apart in the source; their conditions may differ.

Key:
primary BMDM cells = experiment: Cell growth and proliferation assay (MTS) in primary bone marrow-derived macrophages; format: cell-based, CD-1 mice; settings: for concentration at which cell division was stimulated (MTS assay) on exposure of the cells to light: primary BMDM, compound in EtOH
Method: The cells were incubated with 1.5% MCSF for 24 hr.
Compounds 1a and 2a stimulated cell division, as determined by the MTS assay, at 2.5 and 1.0 μM, respectively, on exposure of the cells to light.
Cell Growth and Proliferation Assays. RAW 264.7 cells were obtained from the American Type Culture Collection (Rockville, Md.). BMDMs were isolated from femurs of 6- to 8-week old female CD-1 mice from Charles River Laboratory as described previously.^S2 The cells were cultured as described previously. Cell growth was estimated by measuring the rate of reduction of the tetrazolium dye MTS, (3-(4,5-dimethylthiazol-2-yl)-5-(3-carboxymethoxy-phenol)-2-(4-sulfophenyl)-2H-tetrazolium). […] Photolysis of 2.5 μM of compound 1a (delivered to RAW 264.7 cells in EtOH) was equipotent as exogenous 30 μM C1P.

RAW 264.7 cells = experiment: Cell growth and proliferation assay (MTS) in RAW 264.7 macrophages; settings: for cell growth on delivery into RAW 264.7 macrophages: FIG. 3A, 400-500 nm light in a transilluminator; for concentration at which cell division was stimulated (MTS assay) on exposure of the cells to light: RAW264.7, compound in EtOH, 400-500 nm light; for growth stimulation in the dark: cells incubated in the dark with the compounds; for concentration for stimulation of macrophage proliferation compared with exogenous C1P: macrophages (RAW 264.7 and BMDM), after photorelease
Method: Cell Growth and Proliferation Assays. RAW 264.7 cells were obtained from the American Type Culture Collection (Rockville, Md.). […] Cell growth was estimated by measuring the rate of reduction of the tetrazolium dye MTS, (3-(4,5-dimethylthiazol-2-yl)-5-(3-carboxymethoxy-phenol)-2-(4-sulfophenyl)-2H-tetrazolium).
The cells were exposed to 400-500 nm light in a transilluminator equipped with a 9W lamp for 60 min at a distance of 1.5 cm at 37° C.

[1] = Qualitative measurement of uncaging efficiency (photolysis at 365 nm, TLC); format: physicochemical; settings: 100 μM in 50% aqueous EtOH, 50% 10 mM Tris, pH 7.4, 365 nm UV lamp at 1 cm
Method: Qualitative Measurement of Uncaging Efficiency. A 100 μM solution of S1P 1 in 50% aqueous EtOH and 50% 10 mM Tris, pH 7.4, was placed in a quartz cuvette and placed at a distance of 1 cm from a conventional UV lamp (Entela UVGL-25 UV lamp). The compound was irradiated using long wavelength (365 nm) and, after a certain time, as indicated in the TLC, an aliquot was applied to a TLC plate, which was developed with CHCl3/MeOH 3:1. Photodecomposition of 100% DECM-caged 1P 1 took place around 60 min.
Qualitative Measurement of Uncaging Efficiency. A 100 μM solution of BHNB-caged S1P (2) in 50% aqueous EtOH and 50% 10 mM Tris, pH 7.4, was placed in a quartz cuvette and irradiated at 365 nm at a distance of 1 cm with a conventional UV lamp (Entela UVGL-25 UV lamp). Aliquots were withdrawn at various times and analyzed by TLC (developed using CHCl3/MeOH 2:1). The mechanism of photolysis of 2-nitrobenzyl caged compounds has been thoroughly studied and is known to generate 2-nitrosobenzaldehyde as the photo by-product of the reaction.^S1 Similarly, our BHNB uncaging experiment is expected to generate a 2-nitrosobenzophenone derivative as the byproduct (Formula 20). […] 100% photodecomposition of […]-S1P (2) took place after 65 min.

SMILES: CCCCCCCCCCCCC/C=C/[C@@H](O)[C@H](COP(=O)(O)O)NC(=O)CCCCCCCCCCCCCCC [N-palmitoyl-C1P, reference compound]
- optimum concentration for stimulation of cell growth (primary BMDM cells; BMDM, aqueous dispersion, exogenous addition): 50 µM
- optimum concentration for stimulation of cell growth (RAW 264.7 cells; RAW 264.7, aqueous dispersion, exogenous addition): 30 µM
- effect on cell growth at concentrations higher than 30 μM (RAW 264.7 cells; RAW 264.7, exogenous aqueous dispersion): growth inhibitory

SMILES: CCCCCCCCCCCCC/C=C/[C@@H](O)[C@@H](N)COP(=O)(O)OCc1cc(=O)oc2cc(N(CC)CC)ccc12 [Compound 1, (2S,3R,4E)-2-Amino-3-hydroxyoctadec-4-enyl (7-(Diethylamino)coumarin-4-yl) -methyl Phosphate]
- time to 100% photodecomposition [1]: around 60 min

SMILES: CCCCCCCCCCCCC/C=C/[C@@H](O)[C@@H](N)COP(=O)(O)OC(c1ccccc1)c1cc(O)c(Br)cc1[N+](=O)[O-] (stereo partly drawn) [Compound 2, (2S,3R,4E)-2-Amino-3-hydroxyoctadec-4-enyl-(4′-bromo-5′-hydroxy-2′-nitrophenyl)(phenyl)methyl Hydrogen Phosphate]
- time to 100% photodecomposition [1]: 65 min

SMILES: CCCCCCCCCCCCC/C=C/[C@@H](O)[C@H](COP(=O)(O)OCc1cc(=O)oc2cc(N(CC)CC)ccc12)NC(=O)CCCCCCCCCCCCCCC [Compound 1a, (2S,3R,4E)-2-Palmitamido-3-hydroxyoctadec-4-enyl (7-Diethylaminocoumarin-4-yl)methyl Phosphate]
- concentration at which cell division was stimulated (MTS assay) on exposure of the cells to light (primary BMDM cells): 2.5 µM
- cell growth on delivery into RAW 264.7 macrophages (RAW 264.7 cells): stimulates cell growth
- potency of growth stimulation compared with exogenous C1P at 30 μM (RAW 264.7 cells; RAW 264.7, 2.5 μM in EtOH, photolysis): as potent as exogenous C1P; also recorded: equipotent
- concentration at which cell division was stimulated (MTS assay) on exposure of the cells to light (RAW 264.7 cells): 2.5 µM
- growth stimulation in the dark (RAW 264.7 cells): No growth stimulation
- concentration for stimulation of macrophage proliferation compared with exogenous C1P (RAW 264.7 cells): significantly lower concentrations than exogenous C1P

SMILES: CCCCCCCCCCCCC/C=C/[C@@H](O)[C@H](COP(=O)(O)OC(c1ccccc1)c1cc(O)c(Br)cc1[N+](=O)[O-])NC(=O)CCCCCCCCCCCCCCC (stereo partly drawn) [Compound 2a, (4′-Bromo-5′-hydroxy-2′-nitrophenyl)(phenyl)methyl-(2S,3R,4E)-3-hydroxy-2-palmitamidooctadee-4-enyl Hydrogen Phosphate]
- concentration at which cell division was stimulated (MTS assay) on exposure of the cells to light (primary BMDM cells): 1.0 µM
- cell growth on delivery into RAW 264.7 macrophages (RAW 264.7 cells): stimulates cell growth
- concentration at which cell division was stimulated (MTS assay) on exposure of the cells to light (RAW 264.7 cells): 1.0 µM
- growth stimulation in the dark (RAW 264.7 cells): No growth stimulation
- concentration for stimulation of macrophage proliferation compared with exogenous C1P (RAW 264.7 cells): significantly lower concentrations than exogenous C1P
